According to BindingDB's records for patent WO2022076495 (MERCK SHARP & DOHME CORP., 2022):

Target: T1, Diacylglycerol O-acyltransferase 2 (Homo sapiens, UniProt Q96PD7)
T1 sequence (Q96PD7 whole entry): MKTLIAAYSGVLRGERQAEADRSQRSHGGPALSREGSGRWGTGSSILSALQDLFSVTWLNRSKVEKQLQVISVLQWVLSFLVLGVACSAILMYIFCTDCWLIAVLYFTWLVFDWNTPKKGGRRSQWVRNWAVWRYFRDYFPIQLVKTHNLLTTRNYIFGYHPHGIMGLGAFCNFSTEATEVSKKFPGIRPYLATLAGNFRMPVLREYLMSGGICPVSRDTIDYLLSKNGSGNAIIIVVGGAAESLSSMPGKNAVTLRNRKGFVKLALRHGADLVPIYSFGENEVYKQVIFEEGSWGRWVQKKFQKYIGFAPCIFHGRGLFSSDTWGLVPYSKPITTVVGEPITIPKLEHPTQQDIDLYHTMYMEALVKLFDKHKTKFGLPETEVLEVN
Assay: DGAT2 enzymatic activity assay
Procedure: DGAT2 activity was determined by measuring the amount of enzymatic product 13Ci8-triolein (13C-l,2,3-Tri(cis-9-octadecenoyl)glycerol) using the membrane prep mentioned above. The assay was carried out in ABgene 384-well assay plates in a final volume of 25 pL at rt. The assay mixture contained the following: assay buffer (100 mM Tris Cl, pH 7.0, 20 mM MgCl2, 5% ethanol), 25 pM of di olein, 5 μM of 13C oleoyl-CoA and 8 ng/pL of DGAT2 membrane.

Which IC50 does the source give for `CC[C@@H](C)n1c(=O)n(-c2cccc(OC(F)F)c2)c2ccc(C(=O)NC3(C)CS(=O)(=O)C3)cc21` [WO2022076495, EXAMPLE 46a] here?
Its IC50 is 81 nM.
